In patent US20080125480A1, “Oil-In-Water Formulation Of Avermectins” (priority 2004, published 2008):

Legend:
[1] = Stability of Abamectin in water at various pH-values and temperatures (dark, HPLC); type: physicochemical
Method: The stability of Abamectin in water at various pH-values and temperatures was determined. 194.4 mg of abamectin was dissolved in 10 ml methanol and 1 ml of the solution transferred to 100 ml of de-mineralised water and a part of this was transferred to a buffer solution. The sample was kept in the dark and the solution analysed using a HPLC.

[2] = Stability of Abamectin in water exposed to light at various pH-values (HPLC); type: physicochemical
Method: The stability of Abamectin in water exposed to light at various pH-values was determined. 194.4 mg of abamectin was dissolved in 10 ml methanol and 1 ml of the solution transferred to 100 ml of demineralised water and a part of this transferred to a buffer solution. […]

Abamectin
Abamectin concentration ([1]; pH 4.0, 25 °C, 7 days): 3.130 ppm
Abamectin concentration ([1]; pH 4.0, 25 °C, 14 days): 2.782 ppm
Abamectin concentration ([1]; pH 4.0, 25 °C, 21 days): 2.566 ppm
Abamectin concentration ([1]; pH 4.0, 25 °C, 28 days): 2.524 ppm
Abamectin concentration ([1]; pH 4.0, 25 °C, Initial): 3.495 ppm
Abamectin concentration ([1]; pH 4.0, 50 °C, 7 days): 1.054 ppm
Abamectin concentration ([1]; pH 4.0, 50 °C, 14 days): 0.383 ppm
Abamectin concentration ([1]; pH 4.0, 50 °C, 21 days): 0.123 ppm
Abamectin concentration ([1]; pH 4.0, 50 °C, 28 days): 0.0609 ppm
Abamectin concentration ([1]; pH 4.0, 50 °C, Initial): 3.495 ppm
Abamectin concentration ([1]; pH 7.0, 25 °C, 7 days): 3.188 ppm
Abamectin concentration ([1]; pH 7.0, 25 °C, 14 days): 3.040 ppm
Abamectin concentration ([1]; pH 7.0, 25 °C, 21 days): 2.829 ppm
Abamectin concentration ([1]; pH 7.0, 25 °C, 28 days): 2.676 ppm
Abamectin concentration ([1]; pH 7.0, 25 °C, Initial): 3.327 ppm
Abamectin concentration ([1]; pH 7.0, 50 °C, 7 days): 2.952 ppm
Abamectin concentration ([1]; pH 7.0, 50 °C, 14 days): 2.780 ppm
Abamectin concentration ([1]; pH 7.0, 50 °C, 21 days): 2.194 ppm
Abamectin concentration ([1]; pH 7.0, 50 °C, 28 days): 1.949 ppm
Abamectin concentration ([1]; pH 7.0, 50 °C, Initial): 3.327 ppm
Abamectin concentration ([1]; pH 9.0, 25 °C, 7 days): 3.005 ppm
Abamectin concentration ([1]; pH 9.0, 25 °C, 14 days): 2.596 ppm
Abamectin concentration ([1]; pH 9.0, 25 °C, 21 days): 2.380 ppm
Abamectin concentration ([1]; pH 9.0, 25 °C, 28 days): 2.287 ppm
Abamectin concentration ([1]; pH 9.0, 25 °C, Initial): 3.555 ppm
Abamectin concentration ([1]; pH 9.0, 50 °C, 7 days): 1.265 ppm
Abamectin concentration ([1]; pH 9.0, 50 °C, 14 days): 0.519 ppm
Abamectin concentration ([1]; pH 9.0, 50 °C, 21 days): 0.205 ppm
Abamectin concentration ([1]; pH 9.0, 50 °C, 28 days): 0.0628 ppm
Abamectin concentration ([1]; pH 9.0, 50 °C, Initial): 3.555 ppm
Abamectin concentration ([2]; pH 4.0, 25° C., Dark, 7 days): 3.130 ppm
Abamectin concentration ([2]; pH 4.0, 25° C., Dark, 14 days): 2.782 ppm
Abamectin concentration ([2]; pH 4.0, 25° C., Dark, 21 days): 2.566 ppm
Abamectin concentration ([2]; pH 4.0, 25° C., Dark, 28 days): 2.524 ppm
Abamectin concentration ([2]; pH 4.0, 25° C., Dark, Initial): 3.495 ppm
Abamectin concentration ([2]; pH 4.0, 25° C., Light (5000-6000 lux), 7 days): 2.923 ppm
Abamectin concentration ([2]; pH 4.0, 25° C., Light (5000-6000 lux), 14 days): 2.332 ppm
Abamectin concentration ([2]; pH 4.0, 25° C., Light (5000-6000 lux), 21 days): 1.961 ppm
Abamectin concentration ([2]; pH 4.0, 25° C., Light (5000-6000 lux), 28 days): 1.666 ppm
Abamectin concentration ([2]; pH 4.0, 25° C., Light (5000-6000 lux), Initial): 3.495 ppm
Abamectin concentration ([2]; pH 7.0, 25° C., Dark, 7 days): 3.188 ppm
Abamectin concentration ([2]; pH 7.0, 25° C., Dark, 14 days): 3.040 ppm
Abamectin concentration ([2]; pH 7.0, 25° C., Dark, 21 days): 2.829 ppm
Abamectin concentration ([2]; pH 7.0, 25° C., Dark, 28 days): 2.676 ppm
Abamectin concentration ([2]; pH 7.0, 25° C., Dark, Initial): 3.327 ppm
Abamectin concentration ([2]; pH 7.0, 25° C., Light (5000-6000 lux), 7 days): 2.941 ppm
Abamectin concentration ([2]; pH 7.0, 25° C., Light (5000-6000 lux), 14 days): 2.529 ppm
Abamectin concentration ([2]; pH 7.0, 25° C., Light (5000-6000 lux), 21 days): 2.223 ppm
Abamectin concentration ([2]; pH 7.0, 25° C., Light (5000-6000 lux), 28 days): 2.034 ppm
Abamectin concentration ([2]; pH 7.0, 25° C., Light (5000-6000 lux), Initial): 3.327 ppm
Abamectin concentration ([2]; pH 9.0, 25° C., Dark, 7 days): 3.005 ppm
Abamectin concentration ([2]; pH 9.0, 25° C., Dark, 14 days): 2.596 ppm
Abamectin concentration ([2]; pH 9.0, 25° C., Dark, 21 days): 2.380 ppm
Abamectin concentration ([2]; pH 9.0, 25° C., Dark, 28 days): 2.287 ppm
Abamectin concentration ([2]; pH 9.0, 25° C., Dark, Initial): 3.555 ppm
Abamectin concentration ([2]; pH 9.0, 25° C., Light (5000-6000 lux), 7 days): 3.163 ppm
Abamectin concentration ([2]; pH 9.0, 25° C., Light (5000-6000 lux), 14 days): 2.810 ppm
Abamectin concentration ([2]; pH 9.0, 25° C., Light (5000-6000 lux), 21 days): 2.360 ppm
Abamectin concentration ([2]; pH 9.0, 25° C., Light (5000-6000 lux), 28 days): 2.173 ppm
Abamectin concentration ([2]; pH 9.0, 25° C., Light (5000-6000 lux), Initial): 3.555 ppm
